In PMC4956231, “Molecular Mechanisms for Drug Hypersensitivity Induced by the Malaria Parasite’s Chloroquine Resistance Transporter” (PLoS Pathogens, 2016):
Where two headings read alike, the source gives them in different places. Marks after values point to notes of the source that are not given here.

What was measured:
[1] = tested on: C=C[C@H]1C[N@@]2CC[C@H]1C[C@@H]2[C@@H](O)c1ccnc2ccc(OC)cc12; test: cells, lysate or membranes; conditions: other: transport via 76I-PfCRT^K1 in oocytes; CQ pH 6.0, quinine and quinidine pH 5.0; 27.5 °C
[2] = tested on: C=C[C@H]1C[N@@]2CC[C@H]1C[C@H]2[C@H](O)c1ccnc2ccc(OC)cc12; test: cells, lysate or membranes; conditions: other: transport via 76I-PfCRT^K1 in oocytes; CQ pH 6.0, quinine and quinidine pH 5.0; 27.5 °C
[3] = tested on: parasites carrying isoforms of PfCRT^CQR; conditions: in vitro studies, cited from earlier work
PfCRT^Dd2 [4] = target: PfCRT^Dd2 (Plasmodium falciparum, UniProt Q9N623, A220S/I356T/K76T/M74I/N326S/N75E/Q271E/R371I); type: cell-based; conditions: extracellular concentrations of 1 and 2 mM; pH 5.5; 15 μM unlabeled CQ
Sequence of PfCRT^Dd2 (Plasmodium falciparum, UniProt Q9N623, A220S/I356T/K76T/M74I/N326S/N75E/Q271E/R371I) (Q9N623 whole entry M74I/N75E/K76T/A220S/Q271E/N326S/I356T/R371I): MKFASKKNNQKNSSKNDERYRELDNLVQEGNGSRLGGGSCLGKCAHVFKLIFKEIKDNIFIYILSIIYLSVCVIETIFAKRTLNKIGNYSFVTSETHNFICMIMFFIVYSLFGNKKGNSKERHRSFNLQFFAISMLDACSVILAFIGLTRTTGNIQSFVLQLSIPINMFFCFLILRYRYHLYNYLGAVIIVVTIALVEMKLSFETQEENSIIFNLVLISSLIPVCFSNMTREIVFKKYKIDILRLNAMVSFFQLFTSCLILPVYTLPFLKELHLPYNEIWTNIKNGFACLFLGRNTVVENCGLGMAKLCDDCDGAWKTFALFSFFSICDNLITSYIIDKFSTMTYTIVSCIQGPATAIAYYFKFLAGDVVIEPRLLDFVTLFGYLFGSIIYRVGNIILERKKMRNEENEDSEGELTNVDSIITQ
Protocol: The uptake of [^3H]CQ (0.25 μM) was measured in the absence (solvent control) or presence of the test compounds (extracellular concentrations of 1 and 2 mM). The assays were conducted at pH 5.5 and in the presence of 15 μM unlabeled CQ.

[5] = tested on: noninjected oocytes and oocytes expressing PfCRT variants or PfNT1; test: Trans-stimulation of [3H]CQ uptake by microinjected compound, all oocyte types; type: cell-based, Plasmodium falciparum; conditions: any of the oocyte types, estimated intracellular concentrations 5 and 10 mM
Protocol: A subset of experiments measured the ability of unlabeled amantadine to trans-stimulate the uptake of [^3H]CQ into the oocyte. Immediately prior to the commencement of the experiment, the oocytes (days 3–4 post-injection of the cRNA) were microinjected with either amantadine (estimated intracellular concentrations of 1, 2.5, 5, 10, 15, or 20 mM) or a control treatment (buffer, spermine, or histidine; the estimated intracellular concentrations of spermine and histidine were 5 and 10 mM). The volume injected was 50 nL and the intracellular concentrations were calculated using previous estimates of the volume of stage V-VI oocytes (~400 nL [77]). The resealed oocytes were then incubated at 16–18°C in OR^2+ buffer for approximately 5 min and the influx of [^3H]CQ was measured as described above. […] The Michaelis-Menten equation was then fitted to the data to derive the kinetic parameters for the trans-stimulation of [^3H]CQ transport by amantadine.

PfCRT^Dd2 [6] = test: [3H]drug transport into Xenopus oocytes expressing PfCRT; type: cell-based, Plasmodium falciparum; conditions: oocytes expressing PfCRT^Dd2; [3H]drug […], pH 5.0, 1 μM unlabeled drug (S4 Fig)
Protocol: (§1) For each treatment, 10 oocytes were transferred to a 5 mL polystyrene round bottom tube (Falcon) and washed twice with 3.5 mL of ND96 buffer, with the residual buffer removed by pipette. […] The assay was terminated by removing the reaction buffer with a pipette and washing the oocytes twice with 3.5 mL of ice-cold ND96 buffer. Each oocyte was transferred to a separate well of a white 96-well plate (NUNC or PerkinElmer), incubated overnight at room temperature in 30 μL of 10% SDS, and mixed on an orbital shaker the following day for approximately 5 min. The lysed oocyte was then combined with 150 μL of MicroScint-40 microscintillant (PerkinElmer), the plate covered with a TopSeal-A (PerkinElmer), and the radioactivity measured with a PerkinElmer MicroBeta^2 microplate liquid scintillation analyzer.

PfCRT^K1 [7] = test: as above; type: cell-based, Plasmodium falciparum; conditions: for rate of uptake mediated by PfCRT^K1, greater than that measured for PfCRT^Dd2: S4 Fig; for rate of uptake: oocytes expressing PfCRT^K1, [3H]drug […], pH 5.0, 1 μM unlabeled drug (Fig 2B, C); for rate of transport, times lower than that measured for CQ: total drug 1.25 μM vs ~12-fold higher total CQ
Protocol: as §1

76N-PfCRT^K1 = test: as above; type: cell-based, Plasmodium falciparum; conditions: transport via 76N-PfCRT^K1 in oocytes, CQ pH 6.0, quinine and quinidine pH 5.0; for Km: read-out: Apparent Km
Protocol: as §1
Note that noninjected oocytes and oocytes expressing PfCRT^3D7 take up [^3H]CQ to similar (low) levels via simple diffusion of the neutral species of the drug; this represents the ‘background’ level of [^3H]CQ accumulation in oocytes (refer to Martin et al. for full data and discussion).

76I-PfCRT^K1 [8] = target: T1, 76I-PfCRT^K1 (Plasmodium falciparum, UniProt Q9N623, A220S/K76I/M74I/N326S/N75E/Q271E/R371I); type: cell-based; conditions: for Apparent Vmax: transport via 76I-PfCRT^K1 in oocytes, CQ pH 6.0, quinine and quinidine pH 5.0
T1 sequence (Q9N623 whole entry A220S/K76I/M74I/N326S/N75E/Q271E/R371I): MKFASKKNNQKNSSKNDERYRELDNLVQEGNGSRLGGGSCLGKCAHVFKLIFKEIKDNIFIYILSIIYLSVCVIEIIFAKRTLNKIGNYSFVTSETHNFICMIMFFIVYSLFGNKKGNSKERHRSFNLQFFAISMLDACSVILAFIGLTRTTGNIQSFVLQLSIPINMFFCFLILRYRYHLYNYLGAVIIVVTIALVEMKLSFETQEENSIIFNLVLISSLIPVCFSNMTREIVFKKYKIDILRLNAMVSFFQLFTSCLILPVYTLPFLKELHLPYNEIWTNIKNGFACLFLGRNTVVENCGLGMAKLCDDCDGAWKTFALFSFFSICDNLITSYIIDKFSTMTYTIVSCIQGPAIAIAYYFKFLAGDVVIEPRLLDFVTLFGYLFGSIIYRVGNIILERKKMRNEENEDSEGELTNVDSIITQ
Protocol: as §1

noninjected oocytes = test: [3H]drug uptake into noninjected oocytes (background accumulation); type: cell-based, Xenopus laevis; conditions: [3H]drug […]
Protocol: as §1

PfCRT^K1 [9] = test: Inhibition of [3H]amantadine transport in oocytes; type: cell-based, Plasmodium falciparum; conditions: via PfCRT^K1 in oocytes
Protocol: as §1

76I,369F-PfCRT^K1 = 76I,369F-PfCRT^K1 (Plasmodium falciparum, UniProt Q9N623, A220S/K76I/M74I/N326S/N75E/Q271E/R371I/V369F); test: Inhibition of [3H]amantadine transport in oocytes; type: cell-based; conditions: via 76I,369F-PfCRT^K1 in oocytes
Sequence of 76I,369F-PfCRT^K1 (Q9N623 whole entry A220S/K76I/M74I/N326S/N75E/Q271E/R371I/V369F): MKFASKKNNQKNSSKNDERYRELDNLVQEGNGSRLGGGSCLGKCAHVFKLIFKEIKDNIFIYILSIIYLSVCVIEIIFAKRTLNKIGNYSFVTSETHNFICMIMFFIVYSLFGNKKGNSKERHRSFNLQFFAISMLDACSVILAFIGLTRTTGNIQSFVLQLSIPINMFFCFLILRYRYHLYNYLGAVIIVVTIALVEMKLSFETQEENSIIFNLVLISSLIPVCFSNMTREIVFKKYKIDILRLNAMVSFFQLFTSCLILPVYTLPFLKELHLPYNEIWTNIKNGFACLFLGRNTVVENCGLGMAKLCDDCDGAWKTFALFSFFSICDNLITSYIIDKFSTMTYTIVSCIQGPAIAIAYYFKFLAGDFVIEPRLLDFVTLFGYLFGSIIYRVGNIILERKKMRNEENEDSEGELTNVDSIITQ
Protocol: as §1

76I-PfCRT^K1 [10] = target: T1, 76I-PfCRT^K1; test: Inhibition of [3H]amantadine transport in oocytes; type: cell-based; conditions: via 76I-PfCRT^K1 in oocytes
Protocol: as §1

PfCRT^CQR = conditions: oocyte system, inhibitor of PfCRT^CQR; cited from earlier work
[11] = artemisinin and/or dihydroartemisinin
[12] = transport via PfCRT^K1 in oocytes, CQ pH 6.0, quinine and quinidine pH 5.0
[13] = pH 5.0, 1 μM unlabeled drug (Fig 2B, C)
[14] = pH 5.0, 1 μM unlabeled drug (S4 Fig)

76I-PfCRT^K1 (Plasmodium falciparum; A220S/K76I/M74I/N326S/N75E/Q271E/R371I)
Km [1]: 24.1 ± 3.0^f (6) μM | Km [2]: 0.42 ± 0.04^c,f (4) μM

C[C@@H]1CC[C@H]2[C@@H](C)C(=O)O[C@@H]3O[C@@]4(C)CC[C@@H]1[C@]32OO4 [artemisinin]
decrease in the IC50 induced by isoforms of PfCRT^CQR (hypersensitivity) [3, 11]: 1.9–3.7 fold

C[C@H]1[C@@H](O)O[C@@H]2O[C@@]3(C)CC[C@H]4[C@H](C)CC[C@@H]1[C@@]24OO3 [dihydroartemisinin]
decrease in the IC50 induced by isoforms of PfCRT^CQR (hypersensitivity) [3, 11]: 1.9–3.7 fold

N[C@@H](Cc1c[nH]cn1)C(=O)O [histidine]
effect on accumulation of [3H]CQ in oocytes expressing PfCRT (PfCRT^Dd2 [4]): do not inhibit | effect on [3H]CQ uptake (trans-stimulation) [5]: neither spermine nor histidine altered

CCCCN(CCCC)CC(O)c1cc(Cl)cc2c1-c1ccc(Cl)cc1/C2=C/c1ccc(Cl)cc1 (centres unmarked) [lumefantrine]
decrease in the IC50 induced by isoforms of PfCRT^CQR (hypersensitivity) [3]: 1.5–3.2 fold

C=C[C@H]1C[N@@]2CC[C@H]1C[C@@H]2[C@@H](O)c1ccnc2ccc(OC)cc12 [quinidine]
rate of uptake (PfCRT^Dd2 [6]): 0.30 ± 0.07 pmol per oocyte/h | rate of uptake mediated by PfCRT^K1, greater than that measured for PfCRT^Dd2 (PfCRT^K1 [7]): 17–35% | rate of uptake (PfCRT^K1 [7]): 0.38 ± 0.08 pmol per oocyte/h | rate of transport, times lower than that measured for CQ (PfCRT^K1 [7]): 10–15 times | Apparent Vmax (PfCRT^K1 [7]; [12]): 24.4 ± 1.6 (7) pmol per oocyte/h | Km (PfCRT^K1 [7]; transport via PfCRT^K1 in oocytes, CQ pH 6.0, quinine and quinidine pH 5.0, 76K-PfCRT^K1 control subtracted, read-out: Apparent Km): 84 ± 1 µM | Apparent Vmax (76N-PfCRT^K1): 14.1 ± 0.9^e,g (6) pmol per oocyte/h | Km (76N-PfCRT^K1): 94 ± 4 µM | Apparent Vmax (76I-PfCRT^K1 [8]): 7.2 ± 0.5^e,g (6) pmol per oocyte/h | rate of uptake (noninjected oocytes; [13]): 0.063 ± 0.010 pmol per oocyte/h | rate of uptake (noninjected oocytes; [14]): 0.05 ± 0.01 pmol per oocyte/h

C=C[C@H]1C[N@@]2CC[C@H]1C[C@H]2[C@H](O)c1ccnc2ccc(OC)cc12 [quinine]
rate of uptake (PfCRT^Dd2 [6]): 0.44 ± 0.04 pmol per oocyte/h | rate of uptake mediated by PfCRT^K1, greater than that measured for PfCRT^Dd2 (PfCRT^K1 [7]): 17–35% | rate of uptake (PfCRT^K1 [7]): 0.55 ± 0.03 pmol per oocyte/h | rate of transport, times lower than that measured for CQ (PfCRT^K1 [7]): 10–15 times | Apparent Vmax (PfCRT^K1 [7]; [12]): 10.3 ± 0.8 (7) pmol per oocyte/h | Apparent Vmax (76N-PfCRT^K1): 13.0 ± 1.0^d,f (6) pmol per oocyte/h | Km (76N-PfCRT^K1): 41 ± 2.6 µM | Vmax of 76I-PfCRT^K1, times lower than the value obtained for PfCRT^K1 (76I-PfCRT^K1 [8]; quinine transport): ~ 115 times | Apparent Vmax (76I-PfCRT^K1 [8]): 0.09 ± 0.01^c,f (4) pmol per oocyte/h | rate of uptake (noninjected oocytes; [13]): 0.10 ± 0.01 pmol per oocyte/h | rate of uptake (noninjected oocytes; [14]): 0.10 ± 0.01 pmol per oocyte/h

CC(C)(C)NC(=O)[C@@H]1C[C@@H]2CCCC[C@@H]2CN1C[C@@H](O)[C@H](Cc1ccccc1)NC(=O)[C@H](CC(N)=O)NC(=O)c1ccc2ccccc2n1 [saquinavir]
effect on [3H]amantadine transport (PfCRT^K1 [9]): inhibited | effect on [3H]amantadine transport (76I,369F-PfCRT^K1): inhibited | effect on [3H]amantadine transport (76I-PfCRT^K1 [10]): inhibited | IC50 (PfCRT^CQR): 13 ± 1 µM

NCCCNCCCCNCCCN [spermine]
effect on accumulation of [3H]CQ in oocytes expressing PfCRT (PfCRT^Dd2 [4]): do not inhibit | effect on [3H]CQ uptake (trans-stimulation) [5]: neither spermine nor histidine altered

COc1ccc(CCN(C)CCCC(C#N)(c2ccc(OC)c(OC)c2)C(C)C)cc1OC (centres unmarked) [verapamil]
effect on [3H]amantadine transport (PfCRT^K1 [9]): inhibited | effect on [3H]amantadine transport (76I,369F-PfCRT^K1): inhibited | effect on [3H]amantadine transport (76I-PfCRT^K1 [10]): inhibited
